Experimental data as given in PMC7297445, “Pharmacokinetic/Pharmacodynamic Determination and Preclinical Pharmacokinetics of the β-Lactamase Inhibitor ETX1317 and Its Orally Available Prodrug ETX0282” (ACS Infectious Diseases, 2020).
Values after ≈ are worked out from the molar mass of the structure shown.

Legend:
[1] = cited from earlier work
Plasma protein binding = format: in vitro ADME, mouse; details: mouse plasma; read-out: percent unbound
Procedure: Plasma protein binding was determined by rapid equilibrium dialysis. Plasma was freshly prepared from blood samples drawn in to EDTA (anticoagulant) containing tubes. Plasma was prepared using a table-top centrifuge and spun per instruction of the tube manufacturer and specifications (Beckton, Dickinson and Company, Franklin Lakes, NJ) and placed on ice prior to use.
Pooled plasma samples were centrifuged at 2000 rpm (approximately 1400g) for 15 min at 4 °C to remove debris. Approximately 90% of the clear supernatant fraction was transferred to a separate tube. Samples (500 μL) were then spiked with a 100× stock solution 100 μM, 0.5 mM, and 10 mM ETX1317 in DMSO respectively for 1, 5, and 100 μM final concentrations, transferred to the top of the filter chambers, and allowed to equilibrate for 15 min prior to centrifugation. The filtrate tubes were centrifuged at 14000g for 15 min at 4 °C. Next, 50 μL of the filtrate was precipitated with 300 μL of acetonitrile containing 250 ng/mL of carbutamide as the internal standard and the samples were analyzed by LC/MS/MS analysis.

[2] = test system: E. coli strain (ATCC 25922); assay: MIC; format: cell-based; details: Escherichia coli, ATCC25922; susceptible strain
Text: All in vivo efficacy studies were supported with PK of ETX1317 and CPD following oral administration of ETX0282 and CPDP. For the purposes of understanding the exposure-PD response relationship, total systemic concentrations of ETX1317 and cefpodoxime were normalized to unbound drug levels after accounting for protein binding with percent unbound estimates of 93% and 66%, respectively, in mouse plasma (Table S2). An in vivo dose range study with CPDP administered alone against a susceptible E. coli strain (ATCC 25922, CPD MIC = 0.5 μg/mL) was completed initially in a murine neutropenic thigh model to confirm its PK/PD target. In this study a 50 mg/kg oral dose of CPDP administered q6h was consistent with achieving 1–log kill over 24 h. […] Oral exposure was generally dose proportional to 50 mg/kg; however, it became less than dose proportional at ≥200 mg/kg.
(§1) The MIC of each isolate was determined using the broth microdilution method following CLSI guidelines of document M07-A7 (CLSI M07-A7).

[3] = test system: Enterobacteriaceae isolates; assay: Hollow-fiber and chemostat models, strains combined; format: cell-based, E. coli, K. pneumoniae; details: infused alone, both models
Procedure: The PK/PD driver of ETX1317 was assessed in the presence of CPD in both hollow-fiber[28]−[31] and chemostat[32]in vitro infection model systems. In all cases, CPD was administered q12h via a 2 h infusion and eliminated with a 2 h half-life, with the concentration of drug exceeding the MIC (the MIC of CPD in the presence of ETX1317 at a 1:2 ratio) for 50% of the dosing interval for each strain. Representative Emax plots are shown graphically for Escherichia coli ARC2687 in the hollow-fiber model and Klebsiella pneumoniae ARC4420 in the chemostat system (Figure 2). […] This could partially be attributed to the distribution of the concentration ranges utilized for the hollow-fiber infection model (HFIM) where most of the data scatter occurred in the efficacious dose range for lower MIC strains. It is important to note that initial evaluation of K. pneumoniae ARC4420 and ARC5118 was completed in the HFIM but rapid degradation of CPD, presumably through accumulation of β-lactamases in the extra-capillary space of the cartridge precluded a reliable assessment of the PK/PD driver with these strains in this model.[32] […] In both the HFIM and chemostat models the optimum critical threshold of ETX1317 was established through iterative Emax fitting of a range of ETX1317 concentrations from 0.5× to 2× the CPD:ETX1317 MIC value. In the HFIM, %Time > ETX1317 CT of 2× MIC provided the highest correlation to observed activity which appeared to be independent to the apparent intrinsic activity of ETX1317 (as reflected by ETX1317 MICBLI of K. pneumoniae ARC4486 vs ARC4488). […] In both models CPD infused alone mimicked vehicle control as expected with similar growth of +2 to 4 log10 CFU/mL.
PK/PD-derived exposure targets for BLIs have utilized various approaches for clinical dose setting. The use of a singular critical threshold value independent of MIC has been used for recent BL/BLI combinations such as ceftazidime/avibactam[34] aztreonam/avibactam,[35] but this has been problematic to correlate activity across a broad range of MICs. More recent work with ceftolozane/tazobactam[36] and other BLI combinations[37],[38] considers a critical threshold value that varies proportionally to the MIC value. […] Convergence of the data to a threshold value related to MIC simplifies dose setting and, in this case, appears to be consistent across a broad range of susceptibility (0.125–1 μg/mL).
Dose range and dose fractionation were performed in hollow-fiber infection model (HFIM) and chemostat (one-compartment) in vitro infection model. […] CPD concentrations were targeted to achieve exposure of ∼50%Time > MIC determined in the presence of ETX1317. […] Bacterial burden (CFU/mL) was serially assessed by sampling (500 μL) from the extra-capillary space of the HFIM cartridge at predetermined time points. […]

K. pneumoniae ARC5118 [4] = assay: MIC, broth microdilution (CLSI); format: cell-based
Procedure: (§2) MICs were determined utilizing a 1:2 ratio of cefpodoxime:ETX1317. […] The isolates utilized in the present study (Table 1) were broadly insensitive to CPD, presumably due to the presence of ESBLs and carbapenemases expressed in these strains. The addition of ETX1317 restored CPD activity to ≤1 μg/mL across all the tested isolates.
as §1

K. pneumoniae ARC4488 = assay: MIC, broth microdilution (CLSI); format: cell-based
Procedure: as §2, §1

E. coli NMC101 [5] = assay: MIC, broth microdilution (CLSI); format: cell-based; details: Escherichia coli, combination at 1:2 ratio cefpodoxime:ETX1317, MIC of CPD
Procedure: as §2, §1

E. coli ARC4419 [6] = assay: MIC, broth microdilution (CLSI); format: cell-based; details: Escherichia coli, combination at 1:2 ratio cefpodoxime:ETX1317, MIC of CPD
Procedure: as §2, §1

E. coli ARC2687 [7] = assay: MIC, broth microdilution (CLSI); format: cell-based
Procedure: as §2, §1

K. pneumoniae ARC4486 = assay: MIC, broth microdilution (CLSI); format: cell-based; details: Klebsiella pneumoniae, combination at 1:2 ratio cefpodoxime:ETX1317, MIC of CPD
Procedure: as §2, §1

K. pneumoniae ARC4420 = assay: MIC, broth microdilution (CLSI); format: cell-based; details: Klebsiella pneumoniae, combination at 1:2 ratio cefpodoxime:ETX1317, MIC of CPD
Procedure: as §2, §1

K. pneumoniae ARC5118 [8] = assay: Murine neutropenic thigh infection model; format: in vivo, mouse
Procedure: (§3) In vivo neutropenic infection models in the mouse were conducted as previously described.[48],[49] All procedures were performed to Entasis approved IACUC policies and guidelines as well as OLAW standards. Briefly, Female CD-1 mice (20–22 g, Charles River Laboratories) were acclimated for 5 days prior to start of study. Animals were housed 3 per cage with free access to food and water. Mice were rendered neutropenic via two doses of cyclophosphamide on days −4 and −1 with 150 mg/kg and 100 mg/kg delivered intraperitoneally in a dose volume of 10 mL/kg, respectively.[48]
(§4) Enterobacteriaceae isolates ARC2687, ARC4488, ARC5118, NMC101, and ARC4419 were prepared for infection from an overnight plate culture. A portion of the plate was resuspended in sterile saline and adjusted to an OD of 0.1 at 625 nm. The adjusted bacterial suspension was further diluted to target an infecting inoculum of approximately 5.0 × 10^6–1.0 × 10^7 CFU/mouse. The actual inoculum size varied between 5.5 × 10^6–1.6 × 10^6 CFU/thigh and administered via intramuscular injection of (100 μL). Plate counts of the inoculum were performed to confirm inoculum concentration and treatment was initiated 2 h after bacterial challenge.
(§5) ETX0282 and CPDP were formulated in 0.5% HPMC/0.1% Tween 80 suspension. meropenem (utilized as a positive control) was solubilized in water for injection. All studies utilized a meropenem dosed at 600 mg/kg q6h subcutaneously as positive control against meropenem sensitive isolates (MIC ≤ 2 μg/mL) and as a negative control against meropenem resistant isolates. For dose arms utilizing a combination of ETX0282 and CPDP, both agents were reconstituted in the same vehicle. All dose concentrations were adjusted to deliver targeted mg/kg doses within a dose volume of 10 mL/kg. Formulation potency was verified by LC/MS/MS.
(§6) ETX0282 and CPDP were administered via q6h dose intervals in order to achieve targeted unbound exposures. At 24 h post initiation of therapy, animals were euthanized, tissue samples aseptically collected and homogenized. Bacterial colony enumeration of tissue homogenate was performed by serial dilution on TSA plates which were incubated overnight at 35 °C prior to colony (CFU) counting.

E. coli ARC2687 [9] = assay: Murine neutropenic thigh infection model; format: in vivo, mouse
Procedure: as §3, §4, §5, §6

E. coli NMC101 [10] = assay: Murine neutropenic thigh infection model; format: in vivo, mouse; details: 600 mg/kg s.c./q6h
Procedure: (§7) To further understand whether this in vitro activity translated to in vivo efficacy, an additional neutropenic thigh study was conducted in mice with increasing doses of ETX0282 alone vs E. coli NMC101 (ETX1317 MICBLI = 1 μg/mL) and ARC4419 (ETX1317 MICBLI = 0.25 μg/mL). […] Despite the significant exposure of ETX1317, a 200 mg/kg q6h dose of ETX0282 alone was ineffective for both strains (Table 6).
as §3, §4, §5, §6

E. coli ARC4419 [11] = assay: Murine neutropenic thigh infection model; format: in vivo, mouse; details: 600 mg/kg s.c./q6h
Procedure: as §7, §3, §4, §5, §6

[12] = q6h, 24 h, cidal = ≥1 log10 CFU/g reduction

COCC1=C(C(=O)O)N2C(=O)[C@@H](NC(=O)/C(=N\OC)c3csc(N)n3)[C@H]2SC1 [cefpodoxime]
% of dosing interval with mean unbound concentrations exceeding at least 0.5 μg/mL ([1]; 400 mg q12h (800 mg/day)): greater than 50%
half-life in humans ([1]; humans): 2 h
F% ([1]; oral proxetil ester prodrug, top dose 400 mg q12h): ≈ 50%
fraction unbound at 15 min (Plasma protein binding): 0.66
MIC [2]: 0.5 µg/mL (≈ 1.17 µM)
growth [3]: +2 to 4 log10 CFU/mL
MIC (K. pneumoniae ARC5118 [4]; Klebsiella pneumoniae, ARC5118, combination at 1:2 ratio cefpodoxime:ETX1317, MIC of CPD): > 64 µg/mL
MIC (K. pneumoniae ARC4488; Klebsiella pneumoniae, ARC4488, combination at 1:2 ratio cefpodoxime:ETX1317, MIC of CPD): > 64 µg/mL
MIC (E. coli NMC101 [5]): > 64 µg/mL
MIC (E. coli ARC4419 [6]): 64 µg/mL
MIC (E. coli ARC2687 [7]; Escherichia coli, ARC2687, combination at 1:2 ratio cefpodoxime:ETX1317, MIC of CPD): > 64 µg/mL
MIC (K. pneumoniae ARC4486): > 64 µg/mL
MIC (K. pneumoniae ARC4420): > 64 µg/mL

C[C@@H](O)[C@H]1C(=O)N2C(C(=O)O)=C(S[C@@H]3CN[C@H](C(=O)N(C)C)C3)[C@H](C)[C@H]12 [meropenem]
log10 CFU/g thigh change 24 h post therapy initiation (K. pneumoniae ARC5118 [8]; 600 mg/kg s.c./q6h): +2.04 log10 CFU/g
in vivo efficacy in words (K. pneumoniae ARC5118 [8]; [12]): not against K. pneumoniae ARC5118
log10 CFU/g thigh change 24 h post therapy initiation (E. coli ARC2687 [9]; 600 mg/kg s.c./q6h): –1.46 log10 CFU/g
in vivo efficacy in words (E. coli ARC2687 [9]; [12]): cidal activity
log10 CFU/g thigh change 24 h post therapy initiation (E. coli NMC101 [10]): –1.36 log10 CFU/g
log10 CFU/g thigh change 24 h post therapy initiation (E. coli ARC4419 [11]): –2.19 log10 CFU/g
susceptibility to meropenem (K. pneumoniae ARC5118 [4]; KPC-producing isolate): resistant to meropenem
susceptibility to meropenem (K. pneumoniae ARC4488; ESBL producer): maintain susceptibility to meropenem
susceptibility to meropenem (E. coli ARC2687 [7]; ESBL producer): maintain susceptibility to meropenem
